Experimental data: patent US20090239757A1, “Control Sequences Responding to AMP and Uses Thereof” (priority 2004, published 2009)
Residues, ends and D or L forms follow the SMILES beside them.

Tests used:
E. coli = test: growth and killing of E. coli on induced expression of novispirin (Suicide Expression System); format: cell-based, Escherichia coli
From the text: In the examples below the method of the invention has been illustrated using novispirin as the antimicrobial peptide and E. coli as the host cell. To assess the sustained physiological response of E. coli to novispirin, an arabinose induction system was used to make E. coli produce novispirin at a sub-lethal rate. […] These categories comprise particularly genes related to membrane dysfunction, heat shock, phage shock and antimicrobial peptide defense.
A plasmid was constructed to investigate the transcriptional response of E. coli upon expressing Novispirin G10 in a Suicide Expression System (SES) setup. The SES takes advantage of conditionally expressing antimicrobial peptides in a sensitive host. The degree of inhibition in the host reflects the potency of the antimicrobial peptide (AMP) (WO200073433). In the current setup, the AMP is exported to the periplasmic space where it interacts with the inner and/or outer membrane of E. coli.
In order to obtain a transcriptional profile of E. coli expressing Novispirin G10, 2×10 mL sterile LB media (10 g/L Bactotryptone, 5 g/L Yeast extract, and 10 g/L NaCl) containing 100 mg/L ampicillin was inoculated with E. coli TOP10 harbouring pDRS5-novispirin and pBAD gIII A, respectively. These cultures were grown overnight at 37° C. at 180 rpm. […]

[1] = test system: Gram-positive and Gram-negative bacteria; details: U.S. Pat. No. 6,492,328; cited from earlier work

## CC[C@H](C)[C@H](NC(=O)CNC(=O)[C@H](CCCCN)NC(=O)[C@H](CCCNC(=N)N)NC(=O)[C@@H](NC(=O)[C@@H](NC(=O)[C@H](CCCNC(=N)N)NC(=O)[C@H](CCCNC(=N)N)NC(=O)[C@H](CC(C)C)NC(=O)[C@H](CC(N)=O)NC(=O)[C@@H](N)CCCCN)[C@@H](C)CC)[C@@H](C)CC)C(=O)N[C@@H](Cc1c[nH]cn1)C(=O)N[C@H](C(=O)N[C@H](C(=O)N[C@@H](CCCCN)C(=O)N[C@@H](CCCCN)C(=O)N[C@@H](Cc1ccc(O)cc1)C(=O)NCC(=O)O)[C@@H](C)CC)[C@@H](C)CC [Novispirin G10] (H-KNLRRIIRKGIHIIKKYG-OH; N-terminus assumed)
E. coli; arabinose induction, sub-lethal rate, growth was not completely inhibited
  growth rate on induction of novispirin expression: reduced the growth rate significantly
E. coli; expressed and exported to the periplasmic space, as opposed to adding purified peptide to a cell culture
  inhibition and killing of the host when the AMP is expressed: prolong the inhibition and delay killing
[1]
  antimicrobial activity: activity against both Gram-positive and Gram-negative bacteria
